Measured values published in patent US9062041B2 (Bayer Intellectual Property GmbH, priority 2011, dated 2015).

Legend:
Format in all cases: cell-based
[1] = target: EP4 subtype of the human PGE2 receptor (Homo sapiens, UniProt P35408); test: cAMP antagonism test on the human EP4 receptor (HTRF cAMP detection); conditions: selectivity towards hEP4, IC50 measured by cAMP antagonism test
Procedure, shortened: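 Cells expressing human EP4 preincubated 20 min at RT with compound (0.8 nM–16.5 μM), then stimulated with PGE2 (0.3 nM in 3× solution, with IBMX) 60 min at RT. After lysis, cAMP measured by HTRF competition (665/620 nm ratio); antagonism seen as rise in FRET signal.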

[2] = target: EP2 subtype of the human PGE2 receptor (Homo sapiens, UniProt P43116); test: cAMP antagonism test on the human EP2 receptor (HTRF cAMP detection); conditions: hEP2 receptor, read-out: Antagonism hEP2 IC50
Procedure, shortened: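 Cells expressing human EP2 preincubated 20 min at RT with compound (0.8 nM–16.5 μM), then stimulated 60 min with PGE2 (3× solution 1.5 nM) in PBS-IBMX. After 20 min lysis, cAMP measured by competitive HTRF with cAMP-d2 and Eu cryptate anti-cAMP antibody (665/620 nm ratio).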

human PGD receptor = target: T1, human PGD receptor (Homo sapiens, UniProt Q13258); test: cAMP antagonism test on the human prostaglandin D receptor (HTRF cAMP detection); conditions: selectivity towards hDP, IC50 measured by cAMP antagonism test
T1 sequence (Q13258 1-359): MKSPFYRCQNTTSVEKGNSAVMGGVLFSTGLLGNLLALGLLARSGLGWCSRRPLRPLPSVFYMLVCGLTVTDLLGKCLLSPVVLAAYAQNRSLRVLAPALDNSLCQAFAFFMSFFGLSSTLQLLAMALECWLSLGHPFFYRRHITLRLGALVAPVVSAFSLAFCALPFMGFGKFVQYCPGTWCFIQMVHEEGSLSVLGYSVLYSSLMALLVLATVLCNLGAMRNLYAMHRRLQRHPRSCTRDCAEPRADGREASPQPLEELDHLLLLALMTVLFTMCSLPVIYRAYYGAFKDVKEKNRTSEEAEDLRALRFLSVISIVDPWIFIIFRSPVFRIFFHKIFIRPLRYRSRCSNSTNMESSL
Procedure, shortened: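 Cells pre-mixed with cAMP-d2 were preincubated with compound (0.8 nM–16.5 μM) for 20 min at RT, then stimulated with 3× PGD2 solution (6 nM, in PBS-IBMX) for 30 min at RT. After lysis (20 min), HTRF read at 665/620 nm; antagonism seen as rise in FRET ratio.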

EP4 subtype of the human PGE2 receptor, sequence (P35408 whole entry): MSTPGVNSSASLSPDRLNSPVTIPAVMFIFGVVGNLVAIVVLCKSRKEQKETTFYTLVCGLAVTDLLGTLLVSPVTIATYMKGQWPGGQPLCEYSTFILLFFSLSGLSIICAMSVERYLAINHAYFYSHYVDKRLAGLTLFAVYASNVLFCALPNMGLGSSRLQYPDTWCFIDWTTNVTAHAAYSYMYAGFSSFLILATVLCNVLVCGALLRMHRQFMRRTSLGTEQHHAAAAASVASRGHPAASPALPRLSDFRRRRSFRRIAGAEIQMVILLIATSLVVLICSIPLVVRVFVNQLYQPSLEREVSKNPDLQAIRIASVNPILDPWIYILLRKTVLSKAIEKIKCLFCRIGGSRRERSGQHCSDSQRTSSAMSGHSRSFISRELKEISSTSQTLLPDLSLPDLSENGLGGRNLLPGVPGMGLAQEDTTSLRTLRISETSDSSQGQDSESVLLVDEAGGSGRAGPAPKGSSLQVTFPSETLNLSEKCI
EP2 subtype of the human PGE2 receptor, sequence (P43116 whole entry): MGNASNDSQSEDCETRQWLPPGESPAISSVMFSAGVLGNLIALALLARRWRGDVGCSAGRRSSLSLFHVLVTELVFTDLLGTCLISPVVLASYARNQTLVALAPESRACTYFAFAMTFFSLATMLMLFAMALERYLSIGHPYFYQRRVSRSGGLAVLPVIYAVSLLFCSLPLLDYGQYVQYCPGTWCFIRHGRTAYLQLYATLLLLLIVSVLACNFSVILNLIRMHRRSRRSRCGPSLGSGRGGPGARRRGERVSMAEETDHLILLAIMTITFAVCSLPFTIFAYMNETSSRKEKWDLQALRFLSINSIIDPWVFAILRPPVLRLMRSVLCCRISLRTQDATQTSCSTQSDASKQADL

Compound	Selectivity hEP2/hEP4 [1]	IC50 [2] [nM]	Selectivity hEP2/hDP (human PGD receptor)
Cc1c(C(=O)NCCCO)ccc2nn(CC3CCN(C(=O)c4ccc(Cl)cc4)CC3)cc12 [Example 253, 2-{[1-(4-chlorobenzoyl)piperidin-4-yl]methyl}-N-(3-hydroxypropyl)-4-methyl-2H-indazol-5-carboxamide]	xx (xx: 10-100)	168	xx (xx: 10-100)
Cc1cc2nn(CC3CN(C(=O)c4ccc(Cl)cc4)C3)cc2cc1C(=O)NCCN1CCOCC1 [Example 278, 2-{[1-(4-chlorobenzoyl)azetidin-3-yl]methyl}-6-methyl-N-(2-morpholinoethyl)-2H-indazol-5-carboxamide]	xxx (xxx > 100)	104	xxx (xxx > 100)
COCCNC(=O)c1cc2cn(CC3CN(C(=O)c4ccc(OC(F)(F)F)cc4)C3)nc2cc1C [Example 181, N-(2-methoxyethyl)-6-methyl-2-({1-[4-(trifluoromethoxy)benzoyl]azetidin-3-yl}methyl)-2H-indazol-5-carboxamide]	xxx (xxx > 100)	35.2	xxx (xxx > 100)
Cc1cc2nn(CC3CN(C(=O)c4ccc(OC(F)(F)F)cc4)C3)cc2cc1C(=O)NCCN1CCOCC1 [Example 279, 6-methyl-N-(2-morpholinoethyl)-2-({1-[4-(trifluoromethoxy)benzoyl]azetidin-3-yl}methyl)-2H-indazol-5-carboxamide]	xxx (xxx > 100)	57.4	xxx (xxx > 100)
COCCNC(=O)c1ccc2nn(C[C@@H]3CCN(C(=O)c4ccc(S(F)(F)(F)(F)F)cc4)C3)cc2c1C [Example 219, N-(2-methoxyethyl)-4-methyl-2-({(3R)-1-[4-(pentafluoro-λ^6-sulphanyl)benzoyl]-pyrrolidin-3-yl}methyl)-2H-indazol-5-carboxamide]	xx (xx: 10-100)	273	xx (xx: 10-100)
COc1ccc(-c2ccc(C(=O)N3CCC(Cn4cc5c(C)c(C(=O)NCC(F)(F)F)ccc5n4)CC3)cc2)nc1 [Example 326, 2-({1-[4-(5-methoxypyridin-2-yl)benzoyl]piperidin-4-yl}methyl)-4-methyl-N-(2,2,2-trifluoroethyl)-2H-indazol-5-carboxamide]	xx (xx: 10-100)	485	xx (xx: 10-100)
Cc1cc2nn(CC3CN(C(=O)c4ccc(-c5ccc(F)cc5)cc4)C3)cc2cc1C(=O)NCC(F)(F)F [Example 203, 2-({1-[(4′-fluorobiphenyl-4-yl)carbonyl]azetidin-3-yl}methyl)-6-methyl-N-(2,2,2-trifluoroethyl)-2H-indazol-5-carboxamide]	xxx (xxx > 100)	85.7	xxx (xxx > 100)
Cc1c(C(=O)NCC(F)(F)F)ccc2nn(CC3CCN(C(=O)c4nc5ccccc5s4)CC3)cc12 [Example 302, 2-{[1-(benzothiazol-2-ylcarbonyl)piperidin-4-yl]methyl}-4-methyl-N-(2,2,2-trifluoroethyl)-2H-indazol-5-carboxamide]	xxx (xxx > 100)	131	xxx (xxx > 100)
Cc1c(C(=O)NCCSC(F)(F)F)ccc2nn(CC3CN(C(=O)c4ccc(S(F)(F)(F)(F)F)cc4)C3)cc12 [Example 135, 4-methyl-2-({1-[4-(pentafluoro-λ^6-sulphanyl)benzoyl]azetidin-3-yl}methyl)-N-{2-[(trifluoromethyl)sulphanyl]ethyl}-2H-indazol-5-carboxamide]	xxx (xxx > 100)	19.5	xxx (xxx > 100)
Cc1cc2nn(CC3CN(C(=O)c4ccc(S(F)(F)(F)(F)F)cc4)C3)cc2cc1C(=O)NCC(F)(F)F [Example 188, 6-methyl-2-({1-[4-(pentafluoro-λ^6-sulphanyl)benzoyl]azetidin-3-yl}methyl)-N-(2,2,2-trifluoroethyl)-2H-indazol-5-carboxamide]	xxx (xxx > 100)	149	xxx (xxx > 100)
